Patent US20210395256A1, “TYROSINE KINASE INHIBITORS, COMPOSITIONS AND METHODS THERE OF” (Betta Pharmaceuticals Co., Ltd., priority 2018, published 2021)
Read-outs that look alike come from different tables or passages of the source.

Key:
[1] = Liver microsomes metabolic stability assay, mouse; type: in vitro ADME; conditions: male, mouse liver microsomes 0.5 mg/mL, 37° C.; for half-life at 2 μM: read-out: t1/2 Mouse
In short: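 Pooled human, male rat or male mouse liver microsomes (0.5 mg/mL final) incubated at 37° C with 2 μM compound, with or without 1 mM NADPH. Samples at 0-60 min quenched in cold acetonitrile and analyzed by LC-MS/MS in duplicate. t1/2 derived from ln(% remaining) vs time slope, converted to CLint (μL/min/mg).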

CYP2C19 = target: T1, CYP2C19 (Homo sapiens, UniProt P33261); assay: Cytochrome P450 inhibition, CYP2C19; type: in vitro ADME; conditions: probe (s)-Mephenytoin (50 μM); 10 μM compound, human liver microsomes, substrate (s)-Mephenytoin; read-out: Inhibition percentage CYP2C19 ((s)-Mephenytoin)
T1 construct: from tissue; host or cells: human liver microsomes
T1 sequence (P33261 whole entry): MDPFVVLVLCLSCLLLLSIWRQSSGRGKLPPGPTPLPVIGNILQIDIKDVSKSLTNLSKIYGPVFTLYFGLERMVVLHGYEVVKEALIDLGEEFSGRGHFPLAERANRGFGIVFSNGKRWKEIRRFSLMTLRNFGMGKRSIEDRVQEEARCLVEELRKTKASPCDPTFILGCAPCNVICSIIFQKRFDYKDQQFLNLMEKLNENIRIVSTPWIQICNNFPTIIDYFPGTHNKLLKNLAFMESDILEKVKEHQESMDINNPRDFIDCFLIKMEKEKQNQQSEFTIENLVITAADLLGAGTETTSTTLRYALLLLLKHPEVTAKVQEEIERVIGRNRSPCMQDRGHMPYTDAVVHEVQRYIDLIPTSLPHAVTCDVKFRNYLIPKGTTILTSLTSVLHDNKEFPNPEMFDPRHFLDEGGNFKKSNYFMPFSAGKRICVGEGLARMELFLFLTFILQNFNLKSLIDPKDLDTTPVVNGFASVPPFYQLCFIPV
Method: Example 205 Cytochrome P450 Measurements
The cytochrome P450 was measured as the following procedure:
1) A master solution containing phosphate buffer, ultra-pure H2O, MgCl2 solution and human liver microsomes was made according to Table 17, and then 1 μL of 2 mM of compound solution or 1 μL of DMSO (as without inhibitor control) was added to the above master solution. The final concentration of test compounds or control compounds was 10 μM.
5) For CYP2C19 inhibition, 1 μL of specific drug substrate ((s)-Mephenytoin: 10 mM) was added at the final concentration of 50 μM to the above solution.
8) The mixture was pre-warmed at 37° C. for 5 min. The reaction was started by the addition of 20 μL of 10 mM NADPH solution at the final concentration of 1 mM and carried out at 37° C.
9) The reaction was stopped by addition of 300 μL of cold quench solution (methanol containing internal standards (1S, 500 nM Labetalol, 100 nM Alprazolam and 2 μM Ketoprofen) at the designated time points (Phenacetin: 20 min; Paclitaxel: 10 min; Tolbutamide: 20 min; (s)-Mephenytoin: 20 min; Midazolam: 5 min; Testosterone: 10 min). Samples were vortexed for 5 minutes and centrifuged at 3220 g for 40 minutes at 4° C. And then 100 μL of the supernatant was transferred to a new 96-well plate with 100 μL or 200 μL water (depends on the LC-MS signal response and peak shape) for LC-MS/MS analysis.
All experiments were performed in duplicates.
Inhibition percentages for compounds against CYP1A2, CYP2C8, CYP2C9, CYP2C19, and […]

TrkA kinase = TrkA kinase (Homo sapiens, UniProt P04629); assay: TrkA kinase assay (mobility shift assay); type: biochemical; conditions: read-out: Trk A Kinase IC50
Sequence of TrkA kinase (P04629 33-796): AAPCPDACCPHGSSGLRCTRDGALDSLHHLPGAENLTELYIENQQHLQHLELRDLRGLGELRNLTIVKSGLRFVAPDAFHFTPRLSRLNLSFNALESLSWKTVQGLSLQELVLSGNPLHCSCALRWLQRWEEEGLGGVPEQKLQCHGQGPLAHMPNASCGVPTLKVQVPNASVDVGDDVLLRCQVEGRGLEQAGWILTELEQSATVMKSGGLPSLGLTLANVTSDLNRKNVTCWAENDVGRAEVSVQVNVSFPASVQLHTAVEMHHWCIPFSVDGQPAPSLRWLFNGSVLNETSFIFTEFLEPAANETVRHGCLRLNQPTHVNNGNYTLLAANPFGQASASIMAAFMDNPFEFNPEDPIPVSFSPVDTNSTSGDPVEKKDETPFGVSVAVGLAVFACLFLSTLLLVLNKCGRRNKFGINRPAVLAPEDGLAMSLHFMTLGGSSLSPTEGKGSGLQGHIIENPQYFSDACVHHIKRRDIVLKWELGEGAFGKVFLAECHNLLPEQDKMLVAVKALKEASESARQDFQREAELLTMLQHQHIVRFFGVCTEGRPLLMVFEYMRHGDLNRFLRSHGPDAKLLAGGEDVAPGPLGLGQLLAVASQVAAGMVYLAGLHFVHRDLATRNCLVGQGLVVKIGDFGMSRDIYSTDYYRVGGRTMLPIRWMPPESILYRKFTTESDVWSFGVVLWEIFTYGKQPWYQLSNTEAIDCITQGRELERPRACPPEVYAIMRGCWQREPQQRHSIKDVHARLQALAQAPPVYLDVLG
In short: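 Caliper mobility-shift readout of FAM-labelled peptide conversion by TrkA in 50 mM HEPES pH 7.5, 0.0015% Brij-35, with ATP; enzyme preincubated 10 min with compound (10-point dilution), reaction at 28 °C, EDTA stop. Inhibition relative to DMSO and no-enzyme controls; IC50 by four-parameter fit.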

For `Cc1nnc(-c2cnn3ccc(N4CCCC4c4cc(F)ccc4F)nc23)[nH]1` (stereo not drawn) [Comparative compound A, 5-[2-(2,5-Difluorophenyl)pyrrolidin-1-yl]-3-(5-methyl-1H-1,2,4-triazol-3-yl)pyrazolo[1,5-a]pyrimidine, reference compound], which microsomal CLint at 2 μM [1] is on record?
The microsomal CLint at 2 μM was 214 µL/min/mg.

And the half-life at 2 μM [1]?
Its half-life at 2 μM is 6.47 min.

What about the inhibition at 20 min, 10 µM (CYP2C19) of the same compound?
The inhibition at 20 min, 10 µM was 13%.

For `C[C@H](O)c1nnc(-c2cnn3ccc(N4CCC[C@@H]4c4cc(F)ccc4F)nc23)[nH]1` [Compound 4, (S)-1-(5-(5-((R)-2-(2,5-difluorophenyl)pyrrolidin-1-yl)pyrazolo[1,5-a]pyrimidin-3-yl)-4H-1,2,4-triazol-3-yl)ethan-1-ol], which IC50 (TrkA kinase; numeric values) is on record?
Its IC50 is 1.37 nM.

What about the microsomal CLint at 2 μM [1] of the same compound?
The microsomal CLint at 2 μM was 96.4 µL/min/mg.

And the half-life at 2 μM [1]?
Its half-life at 2 μM is 14.4 min.

And the inhibition at 20 min, 10 µM (CYP2C19)?
Its inhibition at 20 min, 10 µM is 7.23%.

Which IC50 (TrkA kinase; numeric values) does the source give for `CC(C)(O)c1nnc(-c2cnn3ccc(N4CCC[C@@H]4c4cc(F)ccc4F)nc23)[nH]1` [Compound 7, (R)-2-(5-(5-(2-(2,5-difluorophenyl)pyrrolidin-1-yl)pyrazolo[1,5-a]pyrimidin-3-yl)-4H-1,2,4-triazol-3-yl)propan-2-ol] here?
The IC50 was 0.68 nM.

And the microsomal CLint at 2 μM [1]?
Its microsomal CLint at 2 μM is 19.4 µL/min/mg.

What about the half-life at 2 μM [1] of the same compound?
Its half-life at 2 μM is 71.5 min.

What about the inhibition at 20 min, 10 µM (CYP2C19) of the same compound?
The inhibition at 20 min, 10 µM was 6.79%.

With `C[C@H](N)c1nnc(-c2cnn3ccc(N4CCC[C@@H]4c4cc(F)ccc4F)nc23)[nH]1` [Compound 11, (S)-1-(5-(5-((R)-2-(2,5-difluorophenyl)pyrrolidin-1-yl)pyrazolo[1,5-a]pyrimidin-3-yl)-4H-1,2,4-triazol-3-yl)ethan-1-amine] as the compound, how does the IC50 (TrkA kinase; class symbols) read?
The IC50 was at most 10 nM.

And the microsomal CLint at 2 μM [1]?
Its microsomal CLint at 2 μM is 61.9 µL/min/mg.

With `OC1(c2nnc(-c3cnn4ccc(N5CCC[C@@H]5c5cc(F)ccc5F)nc34)[nH]2)CCC1` [Compound 23, (R)-1-(5-(5-(2-(2,5-difluorophenyl)pyrrolidin-1-yl)pyrazolo[1,5-a]pyrimidin-3-yl)-4H-1,2,4-triazol-3-yl)cyclobutan-1-ol] as the compound, how does the IC50 (TrkA kinase; numeric values) read?
Its IC50 is 2.3 nM.

What about the microsomal CLint at 2 μM [1] of the same compound?
The microsomal CLint at 2 μM was 48.6 µL/min/mg.

What about the half-life at 2 μM [1] of the same compound?
The half-life at 2 μM was 28.5 min.

What does the source list for `CC(C)(O)Cc1nnc(-c2cnn3ccc(N4CCC[C@@H]4c4cc(F)ccc4F)nc23)[nH]1` [Compound 30, (R)-1-(5-(5-(2-(2,5-difluorophenyl)pyrrolidin-1-yl)pyrazolo[1,5-a]pyrimidin-3-yl)-4H-1,2,4-triazol-3-yl)-2-methylpropan-2-ol]?
IC50 (TrkA kinase; numeric values): 4.9 nM; microsomal CLint at 2 μM [1]: 35.6 µL/min/mg; half-life at 2 μM [1]: 38.9 min

For `OC1CC(c2nnc(-c3cnn4ccc(N5CCC[C@@H]5c5cc(F)ccc5F)nc34)[nH]2)C1` (stereo partly drawn) [Compound 31, (R)-3-(5-(5-(2-(2,5-difluorophenyl)pyrrolidin-1-yl)pyrazolo[1,5-a]pyrimidin-3-yl)-4H-1,2,4-triazol-3-yl)cyclobutan-1-ol], which IC50 (TrkA kinase; numeric values) is on record?
The IC50 was 2.3 nM.

And the microsomal CLint at 2 μM [1]?
The microsomal CLint at 2 μM was 37 µL/min/mg.

What about the half-life at 2 μM [1] of the same compound?
Its half-life at 2 μM is 37.4 min.

For `C[C@@H](CO)c1nnc(-c2cnn3ccc(N4CCC[C@@H]4c4cc(F)ccc4F)nc23)[nH]1` [Compound 39, (R)-2-(5-(5-((R)-2-(2,5-difluorophenyl)pyrrolidin-1-yl)pyrazolo[1,5-a]pyrimidin-3-yl)-4H-1,2,4-triazol-3-yl)propan-1-ol], which IC50 (TrkA kinase; numeric values) is on record?
The IC50 was 1.26 nM.

What about the microsomal CLint at 2 μM [1] of the same compound?
The microsomal CLint at 2 μM was 41.4 µL/min/mg.

What about the half-life at 2 μM [1] of the same compound?
The half-life at 2 μM was 33.5 min.

Which results are given for `OC(c1nnc(-c2cnn3ccc(N4CCC[C@@H]4c4cc(F)ccc4F)nc23)[nH]1)C(F)(F)F` (stereo partly drawn) [Compound 47, 1-(5-(5-((R)-2-(2,5-difluorophenyl)pyrrolidin-1-yl)pyrazolo[1,5-a]pyrimidin-3-yl)-4H-1,2,4-triazol-3-yl)-2,2,2-trifluoroethan-1-ol]?
IC50 (TrkA kinase; numeric values): 3.23 nM; inhibition at 20 min, 10 µM (CYP2C19): 20.3%
